Laboratory results published in paper PMC6680932, “Structure–Antioxidant–Antiproliferative Activity Relationships of Natural C7 and C7–C8 Hydroxylated Flavones and Flavanones” (Antioxidants, 2019).

Experiment: FRAP (ferric ion reducing antioxidant power) assay
Conditions: 10 min, 593 nm; mean ± SD
Method: The antioxidant capacity of flavonoids was measured in three separate tests: ABTS, DPPH, and ferric ion reducing antioxidant power (FRAP) assays (ABTS, DPPH, and FRAP reagents from Sigma-Aldrich). All tested compounds were dissolved in DMSO. All determinations were performed in triplicate. Standard curves were prepared for all assays using different concentrations of Trolox (6-hydroxy-2,5,7,8-tetramethylchroman-2-carboxylic acid) (Sigma-Aldrich). Trolox is a water-soluble analogue of vitamin E with high antioxidant activity, commonly used as a control and a reference in studies of antioxidant activity. The results were expressed as the equivalent of μmol Trolox per μmol of the test compound. The absorbance was measured using a UV-2401 PC spectrophotometer (Shimadzu, Kyoto, Japan). Concentrations of the tested samples were in the range from 50 µg/mL to 10 mg/mL.
The FRAP method is based on measuring the ability of antioxidants to reduce ferric 2,4,6-tris(2-pyridyl)-1,3,5-triazine [Fe(III)-TPTZ] in the blue colored ferrous form, which absorbs light at λ = 593 nm. The Fe(III)-TPTZ reagent was prepared as a mixture of acetate buffer (pH 3.6), 10 mM TPTZ in 40 mM HCl, and 20 mM FeCl3 in the ratio of 10:1:1 (v/v/v). The FRAP reagent was freshly prepared before each experiment. The samples (0.1 mL) were mixed in polystyrene cuvettes with 3 mL of ferric complex and 0.9 mL of distilled water. The absorbance was measured after 10 min at λ = 593 nm.

## O=c1cc(-c2ccc(O)cc2)oc2c(O)c(O)cc(O)c12 [Compound 10, 8-hydroxyapigenin]
  TEAC FRAP: 7.824 ± 0.657 µmol trolox per µmol of tested
